Assay results from patent US9669003B2, “Use of flavone and flavanone derivatives in preparation of sedative and hypnotic drugs” (priority 2012, dated 2017).
Marks after values point to notes of the source that are not given here.

Experiments:
Format in all cases: in vivo
[1] = system: Kunming mice; assay: Influence on autonomic activity of normal mice (ZIL-2 mice autonomic activity meter, counts within 10 min); conditions: intragastric, x ± s; for Times of activities in 1 h after drug administration/10 min: 1 h after administration; for Times of activities in 2 h after drug administration/10 min: 2 h after administration; for Times of activities in 24 h after drug administration/10 min: 24 h after administration
Summary of the method: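 Kunming mice (10 per group, half each sex) were dosed at 25, 50 or 100 mg/kg in 0.5% CMC-Na. Spontaneous activity counts over 10 min were recorded at 1 h, 2 h and 24 h post-dose. Groups were compared by ANOVA with Dunnett's test after Levene's check.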

[2] = system: Kunming mice; assay: Influence on hypnosis effect with pentobarbital sodium doses below the threshold (25 mg/kg i.p.); conditions: pentobarbital sodium 25 mg/kg i.p. 60 min later, sleep observed in 30 min, n = 10
Summary of the method: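 Kunming mice (10 per group, half female) given single oral doses of 25, 50 or 100 mg/kg in 0.5% CMC-Na; 60 min later pentobarbital sodium 25 mg/kg i.p. Sleep (righting reflex lost >1 min) scored within 30 min as percentage asleep, χ2 test.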

[3] = system: Kunming mice; assay: Influence on hypnosis effect with pentobarbital sodium doses at the threshold (50 mg/kg i.p.); conditions: pentobarbital sodium 50 mg/kg i.p. 60 min later, x ± s, n = 10
Summary of the method: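 Kunming mice (10/group, half each sex) received compound in 0.5% CMC-Na intragastrically at 25, 50 or 100 mg/kg; 60 min later given 0.3% sodium pentobarbital 50 mg/kg i.p. Sleep latency and duration recorded by loss of righting reflex over 1 min; ANOVA and χ2 for sleep incidence.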

[4] = test drug 25 mg/kg intragastric single dose
[5] = test drug 50 mg/kg intragastric single dose
[6] = test drug 100 mg/kg intragastric single dose
[7] = 25 mg/kg intragastric single dose
[8] = 50 mg/kg intragastric single dose
[9] = 100 mg/kg intragastric single dose

SMILES	Number of sleeping animals [2, 4]	rate of sleeping (%) [2, 4]	Number of sleeping animals [2, 5]	rate of sleeping (%) [2, 5]	Number of sleeping animals [2, 6]	rate of sleeping (%) [2, 6]	duration of sleep [3, 7] [min]	time to sleep [3, 7] [min]	duration of sleep [3, 8] [min]	time to sleep [3, 8] [min]	duration of sleep [3, 9] [min]	time to sleep [3, 9] [min]	Times of activities in 1 h after drug administration/10 min ([1]; 25 mg/kg, n = 10)	Times of activities in 2 h after drug administration/10 min ([1]; 25 mg/kg, n = 10)	Times of activities in 24 h after drug administration/10 min ([1]; 25 mg/kg, n = 10)	Times of activities in 1 h after drug administration/10 min ([1]; 50 mg/kg, n = 10)	Times of activities in 2 h after drug administration/10 min ([1]; 50 mg/kg, n = 10)	Times of activities in 24 h after drug administration/10 min ([1]; 50 mg/kg, n = 10)	Times of activities in 1 h after drug administration/10 min ([1]; 100 mg/kg, n = 10)	Times of activities in 2 h after drug administration/10 min ([1]; 100 mg/kg, n = 10)	further results
COc1ccc(C2CC(=O)c3c(O)c(OC)c(OC)c(OC)c3O2)cc1OC (stereo not drawn) [Example 43, 5-hydroxyl-6,7,8,3′,4′-penta methoxyl-flavanone]	5	50** %	7	70** %	8	80*** %	32.33 ± 23.16	4.88 ± 1.91	59.98 ± 18.43	4.19 ± 1.74	63.07 ± 33.12	3.85 ± 1.76	–	–	–	–	–	–	–	–	Times of activities in 1 h after drug administration/10 min ([1]; 25 mg/kg, n = 10, 25 mg/kg): 293.7 ± 41.4 /10 min; Times of activities in 2 h after drug administration/10 min ([1]; 25 mg/kg, n = 10, 25 mg/kg): 306.3 ± 51.6 /10 min; Times of activities in 24 h after drug administration/10 min ([1]; 25 mg/kg, n = 10, 25 mg/kg): 324.7 ± 71.3 /10 min; Times of activities in 1 h after drug administration/10 min ([1]; 50 mg/kg, n = 10, 50 mg/kg): 254.1 ± 42.7 /10 min; Times of activities in 2 h after drug administration/10 min ([1]; 50 mg/kg, n = 10, 50 mg/kg): 252.6 ± 41.6 /10 min; Times of activities in 24 h after drug administration/10 min ([1]; 50 mg/kg, n = 10, 50 mg/kg): 313.7 ± 68.5 /10 min; Times of activities in 1 h after drug administration/10 min ([1]; 100 mg/kg, n = 10, 100 mg/kg): 265.4 ± 49.2 /10 min; Times of activities in 2 h after drug administration/10 min ([1]; 100 mg/kg, n = 10, 100 mg/kg): 258.1 ± 32.7 /10 min; Times of activities in 24 h after drug administration/10 min ([1]; 100 mg/kg, n = 10, 100 mg/kg): 294.1 ± 72.3 /10 min
COc1ccc(-c2cc(=O)c3c(OC)c(OC)c(OC)c(OC)c3o2)cc1 [Example 8, 5,6,7,8,4′-penta methoxyl-flavone]	5	50** %	6	60** %	8	80*** %	21.52 ± 16.93	5.40 ± 1.83	29.13 ± 26.44	5.05 ± 1.73	66.82 ± 33.63	3.21 ± 1.32	301.3 ± 43.5 /10 min	290.2 ± 39.6 /10 min	286.4 ± 75.2 /10 min	262.1 ± 55.5 /10 min	244.7 ± 53.9 /10 min	299.8 ± 76.4 /10 min	185.7 ± 41.6 /10 min	167.2 ± 48.5 /10 min	Times of activities in 24 h after drug administration/10 min ([1]; 100 mg/kg, n = 10): 280.4 ± 84.2 /10 min
COc1ccc(-c2oc3c(OC)c(OC)c(OC)c(OC)c3c(=O)c2OC)cc1OC [Example 41, 3,5,6,7,8,3′,4′-heptamethoxyl-flavone]	4	40* %	6	60** %	8	80*** %	22.16 ± 16.23	5.33 ± 2.25	28.34 ± 17.13	5.12 ± 2.09	65.44 ± 37.54	3.16 ± 1.23	285.2 ± 44.1 /10 min	266.0 ± 40.6 /10 min	307.2 ± 69.7 /10 min	260.4 ± 37.9 /10 min	245.5 ± 28.1 /10 min	306.2 ± 81.3 /10 min	198.6 ± 58.8 /10 min	171.5 ± 56.7 /10 min	Times of activities in 24 h after drug administration/10 min ([1]; 100 mg/kg, n = 10): 291.5 ± 70.0 /10 min
COc1ccc(C2CC(=O)c3c(OC)c(OC)c(OC)c(OC)c3O2)cc1 (stereo not drawn) [Example 47, 5,6,7,8,4′-penta methoxyl-flavanone]	4	40* %	7	70** %	8	80*** %	39.86 ± 16.75	4.45 ± 1.43	43.26 ± 20.65	3.72 ± 1.65	59.78 ± 19.65	3.18 ± 1.54	328.6 ± 49.7 /10 min	312.7 ± 56.1 /10 min	315.1 ± 85.4 /10 min	280.7 ± 61.3 /10 min	278.6 ± 47.5 /10 min	310.5 ± 75.3 /10 min	237.2 ± 35.6 /10 min	250.3 ± 46.2 /10 min	Times of activities in 24 h after drug administration/10 min ([1]; 100 mg/kg, n = 10): 307.1 ± 82.3 /10 min
COc1ccc(-c2cc(=O)c3c(O)cc(OC)c(OC)c3o2)c(OC)c1OC [Example 9, 5-hydroxyl-7,8,2′,3′,4′-penta methoxyl-flavone]	6	60** %	7	70** %	8	80*** %	49.14 ± 16.71	3.31 ± 1.81	72.31 ± 21.42	2.91 ± 1.52	85.16 ± 21.97	2.12 ± 1.12	258.4 ± 60.2 /10 min	241.1 ± 34.1 /10 min	314.2 ± 67.9 /10 min	183.5 ± 45.9 /10 min	194.3 ± 45.1 /10 min	317.2 ± 80.9 /10 min	129.0 ± 40.2 /10 min	126.3 ± 39.8 /10 min	Times of activities in 24 h after drug administration/10 min ([1]; 100 mg/kg, n = 10): 323.5 ± 62.4 /10 min
CCCc1cc(O)cc2c1C(=O)CC(c1ccc(-c3ccccc3)c([N+](=O)[O-])c1)O2 (stereo not drawn) [Example 70]	6	60** %	8	80*** %	9	90*** %	47.57 ± 18.97	3.60 ± 1.69	61.38 ± 27.39	3.21 ± 1.35	73.09 ± 25.56	2.28 ± 1.13	233.5 ± 58.2 /10 min	227.8 ± 32.9 /10 min	316.0 ± 66.9 /10 min	159.9 ± 45.0 /10 min	141.0 ± 46.3 /10 min	320.9 ± 81.4 /10 min	129.3 ± 41.3 /10 min	117.8 ± 39.6 /10 min	Times of activities in 24 h after drug administration/10 min ([1]; 100 mg/kg, n = 10): 320.7 ± 60.9 /10 min
